Data from patent publication US20080107609A1, “PULMONARY DISEASE TREATMENT” (Schering Corporation, priority 2003, published 2008).

Columns and labels:
[1] = tested on: patients suffering from chronic obstructive pulmonary disease; assay: Example 1: randomized double-blind clinical trial of orally inhaled mometasone furoate vs placebo, FEV1 after salbutamol; assay type: in vivo, human; conditions: for ΔFEV1: dry powder inhaler, COPD patients previously on inhaled corticosteroid, average change from study start, post-salbutamol
Protocol: A randomized, double-blind crossover clinical trial was conducted to compare the effects of orally inhaled mometasone furoate and a placebo, in patients suffering from chronic obstructive pulmonary disease. The drug was delivered from a multiple-dose dry powder inhaler charged with a mixture of mometasone furoate and lactose (having a component weight ratio of 1:5.8) in an agglomerated form. Placebo inhaler units contained only the lactose powder. The drug-containing inhalers delivered the following mean amounts of mometasone furoate particles per inhalation, as measured using an Anderson Cascade Impactor (from Thermo Anderson, Smyrna, Ga. U.S.A.) at an air flow rate through the inhaler of 60 L/minute:
Evaluable patients participating in the study numbered 578, all having been diagnosed with COPD of moderate severity, being at least 40 years of age, and also being maintained for at least three months prior to commencement of the study on daily inhalations of a corticosteroid drug (even though there was no regulatory agency-approved COPD therapy using an inhaled corticosteriod). […] The patients were enrolled at a total of 35 sites in 24 countries, and were prescribed two inhalations from the supplied inhaler device each evening for a twelve-month period, with evaluations by a physician after 1, 3, 6, 9, and 12 months of participation. A total of 294 of the patients were randomized to receive inhalers containing the drug, while 284 patients received placebo inhalers. All of the patients were permitted to further use inhaled salbutamol as needed.
Results of the study were as follows, where the ΔFEV1 value represents the average of differences between the patients' FEV1 scores at the beginning of the study and the FEV1 scores at the time of the subsequent measurement, with all of the FEV1 testing being performed after administration of inhaled salbutamol. For each time point, the number of patients remaining in the study is given.
From a statistical analysis of the data, it was determined that the mean change from baseline over the twelve-month period was an increase in ΔFEV1 of 4 mL for patients receiving the mometasone furoate, and a decrease of 36 mL for placebo patients.

[2] = tested on: patients suffering from chronic obstructive pulmonary disease; assay: Example 2: randomized double-blind parallel-group clinical trial of orally inhaled mometasone furoate vs placebo, FEV1 after salbutamol; assay type: in vivo, human; conditions: for ΔFEV1: corticosteroid-naive COPD patients, post-salbutamol; for mean change from baseline in ΔFEV1 over the twelve-month period: statistical analysis, increase
Protocol: A randomized double-blind, parallel-group clinical trial was conducted to compare the effects of orally inhaled mometasone furoate and a placebo, in patients suffering from chronic obstructive pulmonary disease. The multiple dose dry powder inhaler and placebo inhaler described in the preceding example were used for this study. A total of 769 patients met the criteria for evaluability, from 95 sites in 11 countries. The patients had not previously been treated with corticosteroids, either inhaled or orally dosed, but otherwise met the criteria of the preceding example. In the study, patients were prescribed either two inhalations from the inhaler each evening, or one inhalation each morning and one inhalation each evening, with a twelve-month treatment duration. Results of the study were as follows, where the ΔFEV1 value represents the average of differences between the patients' FEV1 scores at the beginning of the study and the FEV1 scores at the time of the subsequent measurement, with all of the FEV1 testing being performed after administration of inhaled salbutamol. For each time point, the number of patients remaining in the study is given.

## C[C@@H]1C[C@H]2[C@@H]3CCC4=CC(=O)C=C[C@]4(C)[C@@]3(Cl)[C@@H](O)C[C@]2(C)[C@@]1(OC(=O)c1ccco1)C(=O)CCl [mometasone furoate, 9α,21-Dichloro-11β,17-dihydroxy-16α-methylpregna-1,4-diene-3,20-dione 17-(2-furoate)]
[1]; 1 month, two inhalations each evening
  ΔFEV1: 5 mL
[1]; 3 months, two inhalations each evening
  ΔFEV1: 9 mL
[1]; 6 months, two inhalations each evening
  ΔFEV1: -2 mL
[1]; 9 months, two inhalations each evening
  ΔFEV1: 22 mL
[1]; 12 months, two inhalations each evening
  ΔFEV1: 7 mL
[1]; longitudinal analysis of variance model, twelve-month period
  difference between treatments (drug vs placebo) in mean ΔFEV1 change: statistically significant
[1]; statistical analysis (longitudinal analysis of variance), two inhalations each evening, increase
  mean change from baseline in ΔFEV1 over the twelve-month period: 4 mL
[1]; twelve months, two inhalations each evening
  pulmonary function over the trial period (FIG. 1): generally maintained or slightly improved their pulmonary function
[2]; Once Daily (two inhalations each evening), 1 month
  ΔFEV1: 66 mL
[2]; Once Daily (two inhalations each evening), 3 months
  ΔFEV1: 57 mL
[2]; Once Daily (two inhalations each evening), 6 months
  ΔFEV1: 44 mL
[2]; Once Daily (two inhalations each evening), 9 months
  ΔFEV1: 37 mL
[2]; Once Daily (two inhalations each evening), 12 months
  ΔFEV1: 38 mL
[2]; Twice Daily (one inhalation each morning and one each evening), 1 month
  ΔFEV1: 72 mL
[2]; Twice Daily (one inhalation each morning and one each evening), 3 months
  ΔFEV1: 79 mL
[2]; Twice Daily (one inhalation each morning and one each evening), 6 months
  ΔFEV1: 36 mL
[2]; Twice Daily (one inhalation each morning and one each evening), 9 months
  ΔFEV1: 58 mL
[2]; Twice Daily (one inhalation each morning and one each evening), 12 months
  ΔFEV1: 31 mL
[2]; dosed once daily
  mean change from baseline in ΔFEV1 over the twelve-month period: 50 mL
[2]; dosed twice daily
  mean change from baseline in ΔFEV1 over the twelve-month period: 53 mL
[2]; twelve months, once daily and twice daily
  pulmonary function over the trial period (FIG. 2): generally improved their pulmonary function
[2]; twelve-month period, ΔFEV1
  comparison of both mometasone furoate treatments (once and twice daily) with placebo: statistically significantly superior to the placebo treatment
